Ki data for one compound are collected here from PMC3218208 (Nature chemical biology, 2011).

The target in the test is Enzyme I (EI, PtsI) (Escherichia coli, UniProt P08839). Briefly: […] pyruvate/PEP isotope exchange assay with LC-MS/MS on purified enzyme. In kind it is biochemical.

Structures are written as SMILES.

With `O=C(O)CCC(=O)C(=O)O` [αKG, α-ketoglutarate], the affinity, expressed as Ki, was 1300 ± 100 µM.
